In ChEMBL document CHEMBL1671717, “In vitro potentiation of carbapenems with ME1071, a novel metallo-beta-lactamase inhibitor, against metallo-beta-lactamase- producing Pseudomonas aeruginosa clinical isolates” (Antimicrob Agents Chemother, 2010):

Assays:
[1] = biological target: Beta-lactamase (Pseudomonas aeruginosa, UniProt Q79MP6)
Description: Inhibition of Pseudomonas aeruginosa beta-lactamase IMP-1 assessed as hydrolysis of nitrocefin by UV spectrophotometric analysis

[2] = biological target: Beta-lactamase VIM-2 (Pseudomonas aeruginosa, UniProt Q9K2N0)
Description: Inhibition of Pseudomonas aeruginosa beta-lactamase VIM-2 assessed as hydrolysis of nitrocefin by UV spectrophotometric analysis

Beta-lactamase, sequence (Q79MP6 whole entry): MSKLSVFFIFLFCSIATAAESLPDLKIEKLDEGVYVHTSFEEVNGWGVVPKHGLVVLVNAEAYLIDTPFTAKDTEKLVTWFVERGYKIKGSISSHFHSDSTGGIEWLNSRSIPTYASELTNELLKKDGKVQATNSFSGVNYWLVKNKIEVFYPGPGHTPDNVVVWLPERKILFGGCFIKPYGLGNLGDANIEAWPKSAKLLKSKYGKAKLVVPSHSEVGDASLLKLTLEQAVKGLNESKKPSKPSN

SMILES	Ki [1]	Ki [2]
C[C@@H](O)[C@H]1C(=O)N2C(C(=O)O)=C(Sc3cc4ccccc4s3)[C@H](C)[C@H]12	180 nM	–
CC/C(C(=O)O)=C(\CC)C(=O)O	–	120000 nM
COC1OC(C)=Cc2oc3cc(O)c(O)c(C(=O)O)c3c(=O)c21 (stereo not given)	180 nM	–
O=C(O)CCS [MERCAPTOPROPIONIC ACID]	180 nM	–
O=C(O)CS [THIOGLYCOLIC ACID]	180 nM	–
